The target in test [1] is isolated recombinant JAK1 kinase domain (Homo sapiens (Human), UniProt P23458). The test is described as follows: JAK1 enzyme assay (Caliper LabChip, Ki). The class given is biochemical. A digest of the protocol:
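Recombinant human JAK1 kinase domain phosphorylating an N-terminally 5-carboxyfluorescein-labelled JAK3-derived peptide, 30 min at 22 °C, stopped with EDTA (50 mM final). Phosphorylated fraction of total peptide read by Caliper LabChip mobility shift; Ki from Morrison tight-binding fit corrected for ATP competition (Ki=Ki,app/(1+[ATP]/Km,app)).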

Test [2] addresses isolated recombinant JAK2 kinase domain (Homo sapiens (Human), UniProt O60674). The test is described as follows: JAK2 enzyme assay (Caliper LabChip, Ki). The class given is biochemical. A digest of the protocol: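 Recombinant human JAK1 or JAK2 kinase domain phosphorylating a 5-carboxyfluorescein-labelled JAK3-derived peptide; 30 min at 22 °C, stopped with EDTA (50 mM final). Phosphorylated product measured as a fraction of total peptide by Caliper LabChip mobility shift.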

Test [3] has as its system JAK1-dependent STAT6 phosphorylation downstream of IL-13 stimulation in BEAS-2B human bronchial epithelial cells. The test is described as follows: JAK1 pathway assay in BEAS-2B cells (IL-13-pSTAT6, MSD). The class given is cell-based. Conditions: Homo sapiens, BEAS-2B.
The mark [4] stands for this setting: BEAS-2B cells, IL-13 stimulation, read-out: IL-13 p-STAT6 BEAS-2B IC50.

Usually Ki stands for the dissociation constant of the complex between target and ligand, obtained from inhibition or displacement. As usually defined, the IC50 is the midpoint of a concentration-inhibition curve.

The structures appear in SMILES notation. Like-named read-outs stand apart in the source and are kept apart here. A value given as a limit tells only on which side of the number the result lay.

isolated recombinant JAK1 kinase domain, sequence (P23458 875-1153): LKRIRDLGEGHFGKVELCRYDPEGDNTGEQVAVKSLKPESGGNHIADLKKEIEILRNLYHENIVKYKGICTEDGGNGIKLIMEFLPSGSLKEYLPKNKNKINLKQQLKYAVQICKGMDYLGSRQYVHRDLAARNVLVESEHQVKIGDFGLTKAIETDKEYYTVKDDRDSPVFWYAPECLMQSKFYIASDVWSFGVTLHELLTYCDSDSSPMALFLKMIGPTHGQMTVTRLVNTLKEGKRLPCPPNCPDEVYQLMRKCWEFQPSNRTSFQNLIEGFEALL
isolated recombinant JAK2 kinase domain, sequence (O60674 849-1124): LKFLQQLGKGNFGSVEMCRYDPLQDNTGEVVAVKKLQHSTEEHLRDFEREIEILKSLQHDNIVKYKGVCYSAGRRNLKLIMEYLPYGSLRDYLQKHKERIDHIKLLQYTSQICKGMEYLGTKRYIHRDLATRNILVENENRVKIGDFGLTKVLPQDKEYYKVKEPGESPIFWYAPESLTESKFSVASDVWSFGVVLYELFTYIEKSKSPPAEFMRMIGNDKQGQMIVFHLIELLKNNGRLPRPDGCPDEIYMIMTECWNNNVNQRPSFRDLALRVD

For `COC(=O)Nc1nn(C2(CC#N)CCN(Cc3cc(O)ccc3Cl)CC2F)cc1C(N)=O` (stereo not drawn) [Example 273, methyl N-[4-carbamoyl-1-[1-[(2-chloro-5-hydroxy-phenyl)methyl]-4-(cyanomethyl)-3-fluoro-4-piperidyl]pyrazol-3-yl]carbamate], the inhibition constant (Ki) in test [1] (read-out: JAK1 Ki) was 0.33 nM; in test [2], 0.31 nM. The IC50 in test [3] (setting [4]) was determined as 75 nM.
For `N#CC[C@@]1(n2cc(C(N)=O)c(NC(=O)C3CC3)n2)CCN(Cc2ccc(-c3ccccc3)cc2)C[C@H]1F` (single isomer, unassigned) [Example 15], in that order: 4.2 nM, 30.7 nM and 282 nM.
As for `N#CCC1(n2cc(C(N)=O)c(NC(=O)C3CC3)n2)CCN(Cc2ccc(-c3ccco3)cc2)CC1F` (stereo not drawn) [Example 215, 1-[4-(cyanomethyl)-3-fluoro-1-[[4-(2-furyl)phenyl]methyl]-4-piperidyl]-3-(cyclopropanecarbonylamino) pyrazole-4-carboxamide], the inhibition constant (Ki) in test [1] (read-out: JAK1 Ki) amounted to 0.24 nM; in test [2] it was 0.25 nM. In addition, the IC50 in test [3] (setting [4]) was 12 nM.
For `COC(=O)Nc1nn(C2(CC#N)CCN(Cc3ccc(C4=CCCC4)c(O)c3)CC2F)cc1C(N)=O` (stereo not drawn) [Example 269, methyl N-[4-carbamoyl-1-[4-(cyanomethyl)-1-[[4-(cyclopenten-1-yl)-3-hydroxy-phenyl]methyl]-3-fluoro-4-piperidyl]pyrazol-3-yl]carbamate], in that order: 0.6 nM, 0.55 nM and 35 nM.
For `CCc1ccc(-c2ccc(CN3CCC(CC#N)(n4cc(C(N)=O)c(NC(=O)C5CC5)n4)CC3)cc2)cc1` [Example 155, 1-[4-(cyanomethyl)-1-[[4-(4-ethylphenyl)phenyl]methyl]-4-piperidyl]-3-(cyclopropanecarbonylamino) pyrazole-4-carboxamide], in that order: 0.6 nM, 7.3 nM and 60 nM.
With `N#CCC1(n2cc(C(N)=O)c(NC(=O)C3CC3)n2)CCN(Cc2ccc(-c3cccc(Cl)c3)cc2)CC1` [Example 146, 1-[1-[[4-(3-chlorophenyl)phenyl]methyl]-4-(cyanomethyl)-4-piperidyl]-3-(cyclopropanecarbonylamino) pyrazole-4-carboxamide], the values for the Ki in test [1] (read-out: JAK1 Ki) and in test [2] were 1.1 nM and 8.2 nM, respectively. For the same molecule, in test [3] (setting [4]), the IC50 is 95 nM.
For `N#CCC1(n2cc(C(N)=O)c(NC(=O)C3CC3)n2)CCN(Cc2cccc(F)c2)CC1` [Example 56], in that order: 2.4 nM, 24.3 nM and 363 nM.
As to `N#CCC1(n2cc(C(N)=O)c(NC(=O)C3CC3)n2)CCN(Cc2ccc(-n3nccn3)cc2)CC1` [Example 89], the inhibition constant (Ki) in test [1] (read-out: JAK1 Ki) was determined as 0.7 nM; in test [2] it was 6.8 nM. In addition, in test [3] (setting [4]), the IC50 worked out at 119 nM.
For `COC(=O)Nc1nn(C2(CC#N)CCN(Cc3ccc(C4=CCCC4)nc3F)CC2F)cc1C(N)=O` (stereo not drawn) [Example 272, methyl N-[4-carbamoyl-1-[4-(cyanomethyl)-1-[[6-(cyclopenten-1-yl)-2-fluoro-3-pyridyl]methyl]-3-fluoro-4-piperidyl]pyrazol-3-yl]carbamate], in that order: 0.68 nM, 1.6 nM and 67 nM.
For `CCS(=O)(=O)Nc1cccc(CN2CCC(CC#N)(n3cc(C(N)=O)c(NC(=O)C4CC4)n3)CC2)c1` [Example 75], in that order: 2.7 nM, 14 nM and over 1000 nM.
With `N#CC[C@]1(n2cc(C(N)=O)c(NC(=O)C3CC3)n2)CC[C@H](N2CC3(CCC3)C2)CC1` [Example 107], the values for the inhibition constant (Ki) in test [1] and in test [2] were 3.3 nM and 43.1 nM, respectively. In test [3] (setting [4]), the concentration for half-maximal inhibition (IC50) was over 1000 nM.
For `COC(=O)Nc1nn(C2(CC#N)CCN(Cc3ccc(-c4ncco4)cc3)CC2F)cc1C(N)=O` (stereo not drawn) [Example 278, methyl N-[4-carbamoyl-1-[4-(cyanomethyl)-3-fluoro-1-[(4-oxazol-2-ylphenyl)methyl]-4-piperidyl]pyrazol-3-yl]carbamate], the inhibition constant (Ki) in test [1] (read-out: JAK1 Ki) was 1.1 nM; in test [2] it was 1.3 nM. Also, the IC50 in test [3] (setting [4]) worked out at 45 nM.
For `COC(=O)Nc1nn(C2(CC#N)CCN(Cc3ccc(-c4ccco4)cc3)CC2F)cc1C(N)=O` (stereo not drawn) [Example 220, methyl N-[4-carbamoyl-1-[4-(cyanomethyl)-3-fluoro-1-[[4-(2-furyl)phenyl]methyl]-4-piperidyl]pyrazol-3-yl]carbamate], in that order: 0.27 nM, 0.44 nM and 15 nM.
As to `N#CCC1(n2cc(C(N)=O)c(NC(=O)C3CC3)n2)CCN(Cc2ccc(-c3ccccc3)c(O)c2)CC1` [Example 11, 1-(4-(Cyanomethyl)-1-((2-hydroxy-[1,1′-biphenyl]-4-yl)methyl)piperidin-4-yl)-3-(cyclopropanecarboxamido)-1H-pyrazole-4-carboxamide], the values for the Ki in test [1] (read-out: JAK1 Ki) and in test [2] were 0.4 nM and 1 nM, respectively. The concentration for half-maximal inhibition (IC50) in test [3] (setting [4]) was 383 nM.
For `N#CC[C@@]1(n2cc(C(N)=O)c(NC(=O)C3CC3)n2)CCN(Cc2ccc(-c3ccccc3)cc2)C[C@@H]1F` (single isomer, unassigned) [Example 13], in that order: 0.6 nM, 2.2 nM and 37 nM.
For `N#CCC1(n2cc(C(N)=O)c(NC(=O)C3CC3)n2)CCC(Nc2ccccc2)CC1` (stereo not drawn) [Example 282, 1-[4-anilino-1-(cyanomethyl)cyclohexyl]-3-(cyclopropanecarbonylamino) pyrazole-4-carboxamide], in that order: 0.62 nM, 9.6 nM and 48 nM.
Take `N#CC[C@]1(n2cc(C(N)=O)c(NC(=O)C3CC3)n2)CC[C@@H](N2CC(F)C2)CC1` [Example 180, 1-[1-(cyanomethyl)-4-(3-fluoroazetidin-1-yl)cyclohexyl]-3-(cyclopropanecarbonylamino) pyrazole-4-carboxamide]: the Ki in test [1] amounted to 5.5 nM; in test [2], 17.3 nM. Moreover, the IC50 in test [3] (read-out: IL-13 p-STAT6 BEAS-2B IC50, BEAS-2B cells, IL-13 stimulation) turned out to be 168 nM.
Take `CC(=O)Nc1cccc(CN2CCC(CC#N)(n3cc(C(N)=O)c(NC(=O)C4CC4)n3)CC2)c1` [Example 76]: the inhibition constant Ki came to 3.9 nM in test [1] (read-out: JAK1 Ki) and 36.9 nM in test [2]. Besides, the IC50 in test [3] (setting [4]) was over 1000 nM.
For `CCc1ccc(C2(F)CN(C3CCC(CC#N)(n4cc(C(N)=O)c(NC(=O)C5CC5)n4)CC3)C2)cc1` (stereo not drawn) [Example 265, 1-[1-(cyanomethyl)-4-[3-(4-ethylphenyl)-3-fluoro-azetidin-1-yl]cyclohexyl]-3-(cyclopropanecarbonylamino) pyrazole-4-carboxamide], in that order: 1.1 nM, 4.2 nM and 88 nM.
For `COC(=O)Nc1nn(C2(CC#N)CCN(Cc3cc(O)c(-c4ccc(C)o4)cc3F)CC2F)cc1C(N)=O` (stereo not drawn) [Example 256, methyl N-[4-carbamoyl-1-[4-(cyanomethyl)-3-fluoro-1-[[2-fluoro-5-hydroxy-4-(5-methyl-2-furyl)phenyl]methyl]-4-piperidyl]pyrazol-3-yl]carbamate], in that order: 0.15 nM, 0.89 nM and 47 nM.
On to `N#CC[C@]1(n2cc(C(N)=O)c(NC(=O)C3CC3)n2)CCN(Cc2ccc(-c3ccccc3)cc2)C[C@H]1F` (single isomer, unassigned) [Example 14], for which the inhibition constant (Ki) in test [1] (read-out: JAK1 Ki) was found to be 0.2 nM; in test [2], 0.4 nM. The IC50 in test [3] (setting [4]) was found to be 16 nM.

The values are drawn from US11731943B2, “Therapeutic compounds, compositions and methods of use thereof” (priority 2016, dated 2023).
